Here are results for 3 compounds from PMC7345905, “Microbial Metabolite Urolithin B Inhibits Recombinant Human Monoamine Oxidase A Enzyme” (Metabolites, 2020).

“And” between values parts separate entries of the source, which are not always exact repeats. Identical values can stand only once.

Details of series [1]: method as in PMID 31892167. Particulars: rats administered pomegranate juice; cited from earlier work.
Another series has as its target T1, human recombinant MAO-B (Homo sapiens, UniProt P27338).
T1 construct: purchased Sigma-Aldrich
T1 sequence (P27338 1-520): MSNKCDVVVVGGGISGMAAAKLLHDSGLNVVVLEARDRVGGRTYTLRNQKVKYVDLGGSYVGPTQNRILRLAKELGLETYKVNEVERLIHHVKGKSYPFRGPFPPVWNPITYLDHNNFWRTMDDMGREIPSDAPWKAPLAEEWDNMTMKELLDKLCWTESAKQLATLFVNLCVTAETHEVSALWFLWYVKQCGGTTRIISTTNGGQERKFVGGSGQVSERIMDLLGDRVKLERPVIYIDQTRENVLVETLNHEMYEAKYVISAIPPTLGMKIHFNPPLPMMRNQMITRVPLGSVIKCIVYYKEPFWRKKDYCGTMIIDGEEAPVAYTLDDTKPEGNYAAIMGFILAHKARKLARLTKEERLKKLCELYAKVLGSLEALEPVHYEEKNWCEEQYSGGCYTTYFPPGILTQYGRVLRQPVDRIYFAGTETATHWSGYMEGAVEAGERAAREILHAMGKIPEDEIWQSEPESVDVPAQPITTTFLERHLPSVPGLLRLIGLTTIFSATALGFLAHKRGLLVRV
Nature of the series: MAO-Glo MAO-B inhibition assay. The series is classed as biochemical. The note with it: N=1-3. The method, then: MAO inhibition assays were performed using a MAO-Glo™ Assay kit (Promega) according to the manufacturer’s instructions. Briefly, 1 µg of human recombinant MAO-A and MAO-B enzyme isoforms were incubated with 160 and 16 µM of MAO substrates, respectively. […] The enzyme reaction was quenched by the addition of a luciferin detection reagent. […] An equal volume of dimethyl sulfoxide (0.1%) was added to the enzyme assay as a control. After 1 h of incubation, the luminescence was measured with a multimode microplate reader (Synergy HT, BioTek, Winooski, VT, USA) to determine the MAO enzyme activities. Initially, the inhibition potential of all the test compounds was evaluated at a concentration of 100 μM. The control reaction (with no inhibitor) with vehicle (DMSO 0.1%) was set at 100% activity. To determine IC50 of the test compounds, the dose dependent enzyme assays were performed. We used range of 0.1 to 50 μM concentrations for MAO-A and 0.1 to 200 μM concentrations of test compounds for the MAO-B enzyme activities. The type of enzyme inhibition was determined using variable concentrations of MAO-A substrate (10–360 µM) and MAO-B substrate (2–64 µM) for the respective enzyme assay. […] A Lineweaver–Burk double reciprocal plot was generated, and the mode of inhibition was determined by visual examination of the plot. The slope of the reciprocal plots was plotted against the inhibitor concentrations and determined the x-axis intercept that represented the inhibitor constant, Ki value.

As to `O=c1oc2cc(O)ccc2c2ccc(O)cc12` [UA, urolithin-A], the “detection in the brain” value in series [1] was “detected in the brains”. Also, the “MAO-B enzyme assay, Percent of control” value at human recombinant MAO-B (0.1 µM, listed as UroA) was 100.912% of control and 101.373% of control and 99.9795% of control; at human recombinant MAO-B (1 µM, listed as UroA), 93.9146% of control and 96.8343% of control and 95.7816% of control; at human recombinant MAO-B (10 µM, listed as UroA), 91.0665% of control and 92.3573% of control and 93.7097% of control; on human recombinant MAO-B (25 µM, listed as UroA), 94.1092% of control and 90.4928% of control; at human recombinant MAO-B (50 µM, listed as UroA), 81.2724% of control and 83.4341% of control and 89.5093% of control; at human recombinant MAO-B (100 µM (Figure 1C), listed as UroA, 100 µM), 76.7559% of control and 78.826% of control and 78.8568% of control. Moreover, the “MAO-B enzyme assay, Percent of control” value on human recombinant MAO-B (100 µM, listed as UroA) is 71.1402% of control and 80.3709% of control and 83.4443% of control; on human recombinant MAO-B (200 µM, listed as UroA), 40.5081% of control and 42.2805% of control and 48.6733% of control.

`O=c1oc2cc(O)ccc2c2ccccc12` [UB, urolithin-B]: the “MAO-B enzyme assay, Percent of control” value was 107.968% of control and 101.629% of control and 95.3271% of control on human recombinant MAO-B (0.1 µM, listed as UroB); 109.561% of control and 99.5806% of control and 93.6856% of control at human recombinant MAO-B (1 µM, listed as UroB); 97.6995% of control and 92.8109% of control and 92.0441% of control at human recombinant MAO-B (10 µM, listed as UroB); 95.5787% of control and 94.7999% of control and 85.3343% of control on human recombinant MAO-B (25 µM, listed as UroB); 93.9851% of control and 85.8855% of control and 84.5675% of control on human recombinant MAO-B (50 µM, listed as UroB); 92.2554% of control and 86.0762% of control and 81.4109% of control on human recombinant MAO-B (100 µM (Figure 1C), listed as UroB, 100 µM). Further, the “MAO-B enzyme assay, Percent of control” value on human recombinant MAO-B (100 µM, listed as UroB) is 74.6465% of control and 81.8955% of control and 81.8476% of control; on human recombinant MAO-B (200 µM, listed as UroB), 35.5859% of control and 42.116% of control and 26.5397% of control.

Take `O=c1oc2cc(O)ccc2c2cc(O)c(O)cc12` [UC, urolithin-C]: the “MAO-B enzyme assay, Percent of control” value is 110.306% of control and 101.117% of control and 109.128% of control on human recombinant MAO-B (0.1 µM, listed as UroC); 102.407% of control and 98.5247% of control and 98.1149% of control on human recombinant MAO-B (1 µM, listed as UroC); 102.182% of control and 94.8161% of control and 92.9925% of control at human recombinant MAO-B (10 µM, listed as UroC); 89.5195% of control and 89.6937% of control and 94.0068% of control at human recombinant MAO-B (25 µM, listed as UroC); 87.5627% of control and 83.096% of control and 84.7864% of control on human recombinant MAO-B (50 µM, listed as UroC); 86.1998% of control and 88.2904% of control and 90.5046% of control on human recombinant MAO-B (100 µM (Figure 1C), listed as UroC, 100 µM). For the same compound, the “MAO-B enzyme assay, Percent of control” value on human recombinant MAO-B (100 µM, listed as UroC) is 82.8808% of control and 77.9531% of control and 81.7949% of control; at human recombinant MAO-B (200 µM, listed as UroC), 43.4074% of control and 44.8007% of control and 46.1838% of control.
